Experiment [1] relates to HT29 human colon cancer cells xenograft. In words: In vivo anti-tumor efficacy in HT29 tumor xenograft model. Also noted: species or system BALB/c nude mice. The note with it: 20 mg/kg, oral gavage once daily, after 16 days of treatment, HT29 xenograft in nude mice.
Method: Female BALB/c nude mice of 5-6 week old were used for all the in vivo efficacy studies. Mice were injected with HT29 human colon cancer cells at 5×10^6 cells per 100 μL SFM into right flank. Tumor volumes were monitored by caliper measurement using the formula: tumor volume (mm^3)=(w^2×l)/2, where w=width and c=length in mm of the tumor. When the tumor volumes reached 150˜300 mm^3, mice were randomized to treatment groups (5˜10 mice per group) to receive compounds (20 mg/kg doses) or vehicle by oral gavage once daily for 16 days. The tumor volumes and body weight were measured every 2-3 days for data analysis. Tumor growth inhibition (TGI) and body weight changes were calculated compared to the vehicle treated groups.
The test system of experiment [2] is Interleukin-4 (IL-4). Briefly: Inhibition of Interleukin-4 (IL-4), GFP+ of CD4+ spleen cells by flow cytometry. To be noted: Mus musculus, 48 h, read-out: IL-4 inhibition. On the technique in general: Flow cytometry measures light scatter and fluorescence of single cells or particles in a stream.
Method: Take spleens of BALB/c gene reported mice, culture in RPMI1640 medium (HyClone). • 2. Spleen will be ground into single cell suspension, add red blood cell lysis buffer (sigma) to suspension, for cracking the red blood cells. • 3. […] Dissolved compounds with DMSO and diluted with RPMI1640 medium containing 10% serum, diluted to a final concentration of 200 nM. • 5. […] After mixing, cells were added to 96 well plates, every hole is 100 μL. […] Each compound and control is three-hole wells, cultured at 37° C. for 48 h. • 6. After 48 h, the plates removed from the incubator and each well was collected in the flow tube (BD). • 7. Added cells to ice pre-cooling of PBS (phosphate buffer solution) solution to wash, and in 100 μL of PBS, join the fluorescent antibody CD4 0.5 μL, put in ice 15 min avoid light. • 8. After dyeing wash antibodies with the ice pre-cooling PBS solution. And prepare for flow cytometric detection. • 9. Using flow cytometry (BD FACS calibur) select the CD4+ cell populations, and detect GFP+ cells accounted for the percentage of CD4+ cells, to determine the impact of compounds on IL-4. • 10.
(§1) Control was DMSO and its concentration was same as the final concentration of test compounds.
The subject of experiment [3] is COLO 205 tumor xenograft. Briefly: In vivo anti-tumor efficacy in COLO205 tumor xenograft model.
For experiment [4], the system named is TNF-α. In words: Inhibition of TNF-α expression, LPS-stimulated spleen cells, ELISA. To be noted: Mus musculus, 24 h, read-out: Inhibition of TNF-α expression. (In general: ELISA stands for enzyme-linked immunosorbent assay.)
Method: Take spleens of BALB/c gene reported mice, cultured in RPMI1640 medium (HyClone). Spleen was ground into single cell suspension, added red blood cell lysis buffer (sigma) to suspension, for cracking the red blood cells • 2. […] Dissolved compounds with DMSO and diluted with RPMI1640 medium containing 10% serum, diluted to a final concentration of 200 nM. • 4. Cells were added to 96 well plates, every hole was 100 μL. […] Each compound and control is three-hole wells. • 5. Cultured at 37° C. for 24 h. • 6. […] Using ELISA (enzyme-linked immunosorbent assay) technique for the determination of the amount of TNF-α in the 24 hours.
as §1
The test system of experiment [5] is A375 cells. Briefly: Cell growth inhibition assay (MTT), A375 cells. Format: cell-based. The note with it: Homo sapiens, A-375, 72 h.
Method: (§2) When the HT29 cells reach their exponential phase of growth, 4×10^3 cells/well were plated into 96-well plates, the edge of plates were filled with sterility PBS, at the same time, filled three holds only with medium as blank group. • 2. The plates were cultured in a humidified 5% CO2 incubator at 37° C. for 24 h, and allowed to proliferate for reaching their exponential phase of growth. • 3. Samples were dissolved in DMSO (dimethyl sulfoxide), the concentration of Samples is 10 mmol/L, 1 mmol/L, 100 μmol/L, 10 μmol/L, 1 μmol/L, 0.1 μmol/L, and further diluted with cell culture medium. The final does concentration were 10 μmol/L, 1 μmol/L, 100 nmol/L, 10 nmol/L, 1 nmol/L, 0.1 nmol/L, 0 nmol/L (the control group). The final DMSO concentration used was 1‰ of total volume of medium in all treatments, including the control group. • Blank: medium • Control: the same dose of DMSO with experiment. Group, the DMSO was diluted with cell perfect culture medium. • Experiment: the cells were treated with the concentration of 10 μmol/L, 1 μmol/L, 100 nmol/L, 10 nmol/L, 1 nmol/L, 0.1 nmol/L. • 4. The plates were cultured in a humidified 5% CO2 incubator at 37° C. for 72 h. 20 μL of 3-(4,5-dimethylthiazol-2-yl)-2,5-diphenyltetrazolium bromide (MTT) reagent (5 mg/mL) in phosphate buffered serum (PBS) was added to each well. • 5. The plates were cultured in a humidified 5% CO2 incubator at 37° C. for 4 h. Subsequently, the solution was aspirated and 150 uL dimethyl sulfoxide was added to release the formed formazan crystals from the living cells mitochondria into the solution. • 6. After moderated shaking for 3 min, absorbance was measured at 490 nm using microplate reader. Methods 2 (A375) • 1. When the A375 cells reach their exponential phase of growth, 5×10^3 cells/well were plated into 96-well plates, the edge of plates were filled with sterility PBS, at the same time, filled three holds only with medium as blank group. • 2. The plates were cultured in a humidified 5% CO2 incubator at 37° C. for 24 h. Allowed to proliferate for reaching their exponential phase of growth. • 3. Samples were dissolved in DMSO (Dimethyl Sulfoxide), the concentration of Samples is 10 mmol/L, 1 mmol/L, 100 μmol/L, 10 μmol/L, 1 μmol/L, 0.1 μmol/L, and further diluted with cell culture medium. The final does concentration were 10 μmol/L, 1 μmol/L, 100 nmol/L, 10 nmol/L, 1 nmol/L, 0.1 nmol/L, 0 nmol/L (the control group). The final DMSO concentration used was 1‰ of total volume of medium in all treatments, including the control group. • Blank: medium • Control: the same dose of DMSO with experiment group, the DMSO was diluted with cell perfect culture medium • Experiment: the cells were treated with the concentration of 10 μmol/L, 1 μmol/L, 100 nmol/L, 10 nmol/L, 1 nmol/L, 0.1 nmol/L • 4. The plates were cultured in a humidified 5% CO2 incubator at 37° C. for 72 h. 20 μL of 3-(4,5-dimethylthiazol-2-yl)-2,5-diphenyltetrazolium bromide (MTT) reagent (5 mg/mL) in phosphate buffered serum (PBS) was added to each well. • 5. The plates were cultured in a humidified 5% CO2 incubator at 37° C. for 4 h. Subsequently, the solution was aspirated and 150 uL dimethyl sulfoxide was added to release the formed formazan crystals from the living cells mitochondria into the solution. • 6. After moderated shaking for 3 min, absorbance was measured at 490 nm using microplate reader.
Experiment [6] concerns HT29 cells. Briefly: Cell growth inhibition assay (MTT), HT29 cells. Format: cell-based. The note with it: Homo sapiens, HT-29, 72 h.
Method: as §2
Where [7] appears, read: 10 mg/kg QD by gavage x 18 days.

The values that follow come from patent publication US9290468B2, “Benzoheterocyclic compounds and use thereof” (SHANGHAI KECHOW PHARMA, INC., priority 2012, dated 2016).

Structures are written as SMILES.

For the compound `Cn1cnc2c(F)c(Nc3ccc(Br)cc3Cl)c(C(=O)NOCCO)cc21` [AZD6244, reference compound], the “Tumor growth inhibition (TGI)” value in experiment [1] is reported as 48.3%.
As usually defined, the inhibition is the change of the read-out against control, counted positive when it falls. The term IC50 denotes the midpoint of a concentration-inhibition curve. A higher IC50 goes with lower potency. In the case of `O=C(NOCCO)c1cc2ocnc2c(F)c1Nc1ccc(I)cc1F` [Compound 1, 4-fluoro-5-((2-fluoro-4-iodophenyl)amino)-N-(2-hydroxyethoxy)benzo[d]oxazole-6-carboxamide], the inhibition at 0.1 µM is at most 50% in experiment [2] and at most 40% in experiment [4]. Further, in experiment [3] (setting [7]), the “Tumor growth inhibition vs vehicle control group” value worked out at 91.22%. Besides, the “Tumor growth inhibition (TGI)” value in experiment [1] worked out at 55.1%. The IC50 amounted to 0.85 nM in experiment [5] and 2.3 nM in experiment [6].
Turning to `O=C(NOCC(O)CO)c1cc2ocnc2c(F)c1Nc1ccc(I)cc1F` (centres unmarked) [Compound 2, N-(2,3-dihydroxypropoxy)-4-fluoro-5-((2-fluoro-4-iodophenyl)amino)benzo[d]oxazole-6-carboxamide], the values for the half-maximal inhibitory concentration (IC50) in experiment [5] and in experiment [6] were 4.6 nM and 8.1 nM, respectively.
In the case of `O=C(NOCCO)c1cc2ocnc2c(F)c1Nc1ccc(Br)cc1Cl` [Compound 3, 5-((4-bromo-2-chlorophenyl)amino)-4-fluoro-N-(2-hydroxyethoxy)benzo[d]oxazole-6-carboxamide], the inhibition at 0.1 µM in experiment [2] was at most 50%; in experiment [4] it was at most 40%. In experiment [3] (20 mg/kg QD by gavage x 18 days), the “Tumor growth inhibition vs vehicle control group” value is 47.11%. The “Tumor growth inhibition (TGI)” value in experiment [1] was found to be 32.3%. The IC50 in experiment [5] amounted to 61.3 nM; in experiment [6], 51.8 nM.
`O=C(NOCC(O)CO)c1cc2ocnc2c(F)c1Nc1ccc(Br)cc1Cl` (centres unmarked) [Compound 4, 5-((4-bromo-2-chlorophenyl)amino)-N-(2,3-dihydroxypropoxy)-4-fluorobenzo[d]oxazole-6-carboxamide]: the IC50 in experiment [5] is 97.5 nM; in experiment [6], 138 nM.
For `O=S(=O)(Nc1cc2ocnc2c(F)c1Nc1ccc(I)cc1F)C1CC1` [Compound 5, N-(4-fluoro-5-((2-fluoro-4-iodophenyl)amino)benzo[d]oxazol-6-yl)cyclopropanesulfonamide] the same measures were 125 nM and 81.6 nM.
`O=S(=O)(Nc1cc2ocnc2c(F)c1Nc1ccc(I)cc1F)C1(CC(O)CO)CC1` (centres unmarked) [Compound 6, 1-(2,3-dihydroxypropyl)-N-(4-fluoro-5-((2-fluoro-4-iodophenyl)amino)benzo[d]oxazol-6-yl)cyclopropane-1-sulfonamide]: the IC50 was determined as 103 nM in experiment [5] and 78.3 nM in experiment [6].
For `O=S(=O)(Nc1cc2ocnc2c(F)c1Nc1ccc(Br)cc1Cl)C1CC1` [Compound 7, N-(5-((4-bromo-2-chlorophenyl)amino)-4-fluorobenzo[d]oxazol-6-yl)cyclopropanesulfonamide] the same measures were 239 nM and 283 nM.
The matching figures for `O=S(=O)(Nc1cc2ocnc2c(F)c1Nc1ccc(Br)cc1Cl)C1(CC(O)CO)CC1` (centres unmarked) [Compound 8, N-(5-((4-bromo-2-chlorophenyl)amino)-4-fluorobenzo[d]oxazol-6-yl)-1-(2,3-dihydroxypropyl)cyclopropane-1-sulfonamide]: 738 nM and 1090 nM.
For `O=C(NOCC(O)CO)c1cc2scnc2c(F)c1Nc1ccc(I)cc1F` (centres unmarked) [Compound 10, N-(2,3-dihydroxypropoxy)-4-fluoro-5-((2-fluoro-4-iodophenyl)amino)benzo[d]thiazole-6-carboxamide], the IC50 is 11.2 nM in experiment [5] and 18.5 nM in experiment [6].
Turning to `O=C(NOCCO)c1cc2scnc2c(F)c1Nc1ccc(Br)cc1Cl` [Compound 11, 5-((4-bromo-2-chlorophenyl)amino)-4-fluoro-N-(2-hydroxyethoxy)benzo[d]thiazole-6-carboxamide], the results for the inhibition at 0.1 µM in experiment [2] and in experiment [4] were at most 50% and at most 40%, respectively. Further, in experiment [3] (setting [7]), the “Tumor growth inhibition vs vehicle control group” value is given as 82.14%. The “Tumor growth inhibition (TGI)” value in experiment [1] amounted to 68.51%. The IC50 in experiment [5] turned out to be 61.4 nM; in experiment [6], 51.2 nM.
Turning to `O=C(NOCC(O)CO)c1cc2scnc2c(F)c1Nc1ccc(Br)cc1Cl` (centres unmarked) [Compound 12, N-(2,3-dihydroxypropoxy)-4-fluoro-5-((4-bromo-2-chlorophenyl)amino)benzo[d]thiazole-6-carboxamide], the IC50 in experiment [5] stood at 174 nM; in experiment [6], 738 nM.
The matching figures for `O=S(=O)(Nc1cc2scnc2c(F)c1Nc1ccc(I)cc1F)C1CC1` [Compound 13, N-(4-fluoro-5-((2-fluoro-4-iodophenyl)amino)benzo[d]thiazol-6-yl)cyclopropanesulfonamide]: 207 nM and 98.3 nM.
For the compound `O=S(=O)(Nc1cc2scnc2c(F)c1Nc1ccc(I)cc1F)C1(CC(O)CO)CC1` (centres unmarked) [Compound 14, 1-(2,3-dihydroxypropyl)-N-(4-fluoro-5-((2-fluoro-4-iodophenyl)amino)benzo[d]thiazol-6-yl)cyclopropane-1-sulfonamide], the IC50 in experiment [5] was determined as 119 nM; in experiment [6], 201 nM.
The matching figures for `O=S(=O)(Nc1cc2scnc2c(F)c1Nc1ccc(Br)cc1Cl)C1CC1` [Compound 15, N-(5-((4-bromo-2-chlorophenyl)amino)-4-fluorobenzo[d]thiazol-6-yl)cyclopropanesulfonamide]: 99.8 nM and 184 nM.
On to `O=S(=O)(Nc1cc2scnc2c(F)c1Nc1ccc(Br)cc1Cl)C1(CC(O)CO)CC1` (centres unmarked) [Compound 16, N-(5-((4-bromo-2-chlorophenyl)amino)-4-fluorobenzo[d]thiazol-6-yl)-1-(2,3-dihydroxypropyl)cyclopropane-1-sulfonamide], for which the IC50 in experiment [5] is 151 nM; in experiment [6] it was 1310 nM.
Regarding `O=C(NOCCO)c1cc2snnc2c(F)c1Nc1ccc(I)cc1F` [Compound 17, 4-fluoro-5-((2-fluoro-4-iodophenyl)amino)-N-(2-hydroxyethoxy)benzo[d][1,2,3]thiadiazole-6-carboxamide], the inhibition at 0.1 µM in experiment [2] is at most 50%; in experiment [4], at most 40%. Further, the “Tumor growth inhibition vs vehicle control group” value in experiment [3] (5 mg/kg QD by gavage x 18 days) is listed as 95.35%. Further, in experiment [1], the “Tumor growth inhibition (TGI)” value turned out to be 88.75%. The half-inhibitory concentration (IC50) is 0.24 nM in experiment [5] and 1 nM in experiment [6].
As to `O=C(NOCC(O)CO)c1cc2snnc2c(F)c1Nc1ccc(I)cc1F` (centres unmarked) [Compound 18, N-(2,3-dihydroxypropoxy)-4-fluoro-5-((2-fluoro-4-iodophenyl)amino)benzo[d][1,2,3]thiadiazole-6-carboxamide], the IC50 in experiment [5] came to 16.8 nM; in experiment [6], 66.4 nM.
For `O=C(NOCC(O)CO)c1cc2snnc2c(F)c1Nc1ccc(Br)cc1Cl` (centres unmarked) [Compound 20, 5-((4-bromo-2-chlorophenyl)amino)-N-(2,3-dihydroxypropoxy)-4-fluorobenzo[d][1,2,3]thiadiazole-6-carboxamide] the same measures were 97.3 nM and 687 nM.
The matching figures for `O=S(=O)(Nc1cc2snnc2c(F)c1Nc1ccc(I)cc1F)C1CC1` [Compound 21, N-(4-fluoro-5-((2-fluoro-4-iodophenyl)amino)benzo[d][1,2,3]thiadiazol-6-yl)cyclopropanesulfonamide]: 1770 nM and 1080 nM.
The matching figures for `O=S(=O)(Nc1cc2snnc2c(F)c1Nc1ccc(I)cc1F)C1(CC(O)CO)CC1` (centres unmarked) [Compound 22, 1-(2,3-dihydroxypropyl)-N-(4-fluoro-5-((2-fluoro-4-iodophenyl)amino)benzo[d][1,2,3]thiadiazol-6-yl)cyclopropane-1-sulfonamide]: 1160 nM and 2620 nM.
Regarding `O=S(=O)(Nc1cc2snnc2c(F)c1Nc1ccc(Br)cc1Cl)C1CC1` [Compound 23, N-(5-((4-bromo-2-chlorophenyl)amino)-4-fluorobenzo[d][1,2,3]thiadiazol-6-yl)cyclopropanesulfonamide], the IC50 amounted to 562 nM in experiment [5] and 3640 nM in experiment [6].
For the compound `O=S(=O)(Nc1cc2snnc2c(F)c1Nc1ccc(Br)cc1Cl)C1(CC(O)CO)CC1` (centres unmarked) [Compound 24, N-(5-((4-bromo-2-chlorophenyl)amino)-4-fluorobenzo[d][1,2,3]thiadiazol-6-yl)-1-(2,3-dihydroxypropyl)cyclopropane-1-sulfonamide], the IC50 is 992 nM in experiment [5] and 4370 nM in experiment [6].
Turning to `O=C(NOCCO)c1cc2ocnc2c(F)c1Nc1ccc(Br)cc1F` [Compound 25, 4-fluoro-5-((2-fluoro-4-bromophenyl)amino)-N-(2-hydroxyethoxy)benzo[d]oxazole-6-carboxamide], the inhibition at 0.1 µM is at most 50% in experiment [2] and at most 40% in experiment [4].
With `O=C(NOCCO)c1cc2scnc2c(F)c1Nc1ccc(Br)cc1F` [Compound 34, 4-fluoro-5-((2-fluoro-4-bromophenyl)amino)-N-(2-hydroxyethoxy)benzo[d]thiazol-6-carboxamide], the inhibition at 0.1 µM in experiment [2] was at most 50%; in experiment [4], at most 40%.
Turning to `O=C(NOCCO)c1cc2snnc2c(F)c1Nc1ccc(Br)cc1F` [Compound 43, 5-((4-bromo-2-fluorophenyl)amino)-4-fluoro-N-(2-hydroxyethoxy)benzo[d][1,2,3]thiadiazole-6-carboxamide], the inhibition at 0.1 µM in experiment [2] is at most 50%; in experiment [4], at most 40%.
As for `Cn1cnc2c(F)c(Nc3ccc(Br)cc3Cl)c(C(=O)NOCCO)cc21` [Reference compound 1, reference compound], the “Tumor growth inhibition vs vehicle control group” value in experiment [3] (setting [7]) is reported as 72.80%.
